# Laboratory results published in ChEMBL document CHEMBL1201862, “PubChem BioAssay data set” (2004).
#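 These data come from cells grown in 96-well plates and exposed to compound for 48 hours at five concentrations. At the GI50, growth is halved.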 Activity calls are given as the source filed them. No stated cut-off is given here; in the data, active = GI50 up to about 1.1 µM and inactive = higher.
# Legend:
# Assay in all cases: NCI tumour cell line growth inhibition, 48 h
# [1] = system: HOP-62
# [2] = system: RXF 393
# [3] = system: OVCAR-8
# [4] = system: SK-OV-3
# [5] = system: EKVX
# [6] = system: UACC-62
# [7] = system: T47D
# [8] = system: DU-145
# [9] = system: IGROV-1
# [10] = system: A549
# [11] = system: NCI-H226
# [12] = system: Malme-3M
# [13] = system: SN12C
# [14] = system: BT-549
# [15] = system: SK-MEL-28
# [16] = system: UACC-257
# [17] = system: MCF7
# [18] = system: PC-3
# [19] = system: HCT-116
# [20] = system: NCI-H23
SMILES,GI50 [1],GI50 [2],GI50 [3],GI50 [4],GI50 [5],GI50 [6],GI50 [7],GI50 [8],GI50 [9],GI50 [10],GI50 [11],GI50 [12],GI50 [13],GI50 [14],GI50 [15],GI50 [16],GI50 [17],GI50 [18],GI50 [19],GI50 [20]
Cc1cc(S(=O)(=O)Nc2n[nH]c(-c3ccc(Cl)cn3)n2)c(S)cc1Cl,76.6 µM (inactive),27.1 µM (inactive),48.8 µM (inactive),88.3 µM (inactive),> 100 µM (inactive),48.6 µM (inactive),31 µM (inactive),> 100 µM (inactive),44.4 µM (inactive),62.7 µM (inactive),33.4 µM (inactive),> 100 µM (inactive),> 100 µM (inactive),32.2 µM (inactive),> 100 µM (inactive),> 100 µM (inactive),74.1 µM (inactive),> 100 µM (inactive),38.6 µM (inactive),
COc1ccc(C(C)c2cc3c(cc2O)OCO3)cc1 (stereo not given),16.4 µM (inactive),14.8 µM (inactive),16.7 µM (inactive),19.7 µM (inactive),20.3 µM (inactive),12.1 µM (inactive),24.9 µM (inactive),18.6 µM (inactive),15.8 µM (inactive),14.7 µM (inactive),19.7 µM (inactive),,18.6 µM (inactive),16.7 µM (inactive),16.8 µM (inactive),15.6 µM (inactive),15.1 µM (inactive),15.7 µM (inactive),15.9 µM (inactive),16.2 µM (inactive)
COC(=O)/C(C#N)=C(\Nc1ccccc1)N1CCOCC1,> 100 µM (inactive),> 100 µM (inactive),> 100 µM (inactive),> 100 µM (inactive),> 100 µM (inactive),,> 100 µM (inactive),> 100 µM (inactive),> 100 µM (inactive),> 100 µM (inactive),> 100 µM (inactive),> 100 µM (inactive),> 100 µM (inactive),> 100 µM (inactive),> 100 µM (inactive),> 100 µM (inactive),> 100 µM (inactive),> 100 µM (inactive),> 100 µM (inactive),> 100 µM (inactive)
O=C1c2ccccc2C(=O)N1n1c(Cc2ccc([N+](=O)[O-])cc2)n[nH]c1=O,> 100 µM (inactive),> 100 µM (inactive),> 100 µM (inactive),,,36.3 µM (inactive),23.3 µM (inactive),> 100 µM (inactive),> 100 µM (inactive),> 100 µM (inactive),> 100 µM (inactive),> 100 µM (inactive),> 100 µM (inactive),> 100 µM (inactive),> 100 µM (inactive),> 100 µM (inactive),> 100 µM (inactive),> 100 µM (inactive),> 100 µM (inactive),> 100 µM (inactive)
C/C(=N\Nc1nc2ccccc2n1C)c1ccc2ccccc2n1,3.13 µM (inactive),5.2 µM (inactive),,12 µM (inactive),0.144 µM (active),2.32 µM (inactive),< 0.01 µM (active),3.86 µM (inactive),0.016 µM (active),2.71 µM (inactive),1.87 µM (inactive),1.59 µM (inactive),1.82 µM (inactive),> 22.3 µM (inactive),5.09 µM (inactive),4.36 µM (inactive),0.406 µM (active),0.212 µM (active),0.791 µM (active),4.41 µM (inactive)
Cc1cn(CCOCCOC(=O)NC(CCCNC(=N)N)C(=O)O)c(=O)[nH]c1=O (stereo not given),> 100 µM (inactive),> 100 µM (inactive),,> 100 µM (inactive),> 100 µM (inactive),> 100 µM (inactive),> 100 µM (inactive),> 100 µM (inactive),> 100 µM (inactive),> 100 µM (inactive),> 100 µM (inactive),,> 100 µM (inactive),> 100 µM (inactive),> 100 µM (inactive),> 100 µM (inactive),> 100 µM (inactive),> 100 µM (inactive),> 100 µM (inactive),> 100 µM (inactive)
CCOC(=O)c1cc(-c2ccn(C(C)=O)c2)c(-c2cc(C)co2)[nH]1,> 100 µM (inactive),> 100 µM (inactive),> 100 µM (inactive),,> 100 µM (inactive),> 100 µM (inactive),> 100 µM (inactive),> 100 µM (inactive),> 100 µM (inactive),> 100 µM (inactive),> 100 µM (inactive),> 100 µM (inactive),> 100 µM (inactive),> 100 µM (inactive),> 100 µM (inactive),> 100 µM (inactive),> 100 µM (inactive),> 100 µM (inactive),> 100 µM (inactive),> 100 µM (inactive)
Cc1cc2c(cc1C)C(=O)C1(C2)Cc2cc3c(cc2C1=O)CCC3 (stereo not given),,> 100 µM (inactive),> 100 µM (inactive),> 100 µM (inactive),> 100 µM (inactive),> 100 µM (inactive),> 100 µM (inactive),> 100 µM (inactive),> 100 µM (inactive),> 100 µM (inactive),> 100 µM (inactive),> 100 µM (inactive),> 100 µM (inactive),> 100 µM (inactive),> 100 µM (inactive),> 100 µM (inactive),> 100 µM (inactive),> 100 µM (inactive),> 100 µM (inactive),> 100 µM (inactive)
